Reference: patent US20110319384A1, “Pharmaceutical Compositions” (priority 2005, published 2011)
Like-named read-outs stand apart in the source and are kept apart here.

How the values were obtained:
[1] = test system: patients with GAD; details: hypothesis to be tested, vs placebo
[2] = test system: patients with GAD
[3] = test system: patients with Social Anxiety Disorder (SAD)
[4] = test system: outpatient adults with SRI-resistant OCD
[5] = test system: non-depressed patients with GAD; details: for change from baseline in HAM-A total score, observed case analysis: significant
[6] = test system: patients with treatment resistant major depression; assay: Example 24: augmentation of antidepressant therapy, quetiapine versus lithium, 56 days
Method: The study compared tolerability and efficacy. […] Lithium was initiated at 600 mg/day, and maintained over Week 1 and 2 and subsequently adjusted to attain a level of 0.8-1.2 mmol/L. Lithium levels were taken weekly.
A total of 20 patients were randomized to 1 of the 2 treatment groups. The study population included men and women aged 18-65 years, with a diagnosis of major depression according to DSM-IV, Hamilton Depression Rating Scale (HAM-D)≧20 and a Clinical Global […] (CGI) score ≧4.
Patients were evaluated at baseline and then on days 7, 14, 28, 42, and 56 using the HAM-D, Montgomery-Asberg […] (MADRS), SAS, and Widlocher Psychomotor Retardation Scale.

[7] = hypothesis to be tested, compared to paroxetine
[8] = hypothesis to be tested, vs placebo
[9] = add-on to antidepressant, mean doses quetiapine 430 mg/day, lithium 825 mg/day

Compound: OCCOCCN1CCN(C2=Nc3ccccc3Sc3ccccc32)CC1 [quetiapine, 11-[4-[2-(2-hydroxyethoxy)ethyl]-1-piperazinyl]-dibenzo[b,f][1,4]thiazepine]
- Adverse events of nausea or vomiting [1]: placebo levels of nausea and
- Adverse events related to EPS (including akathisia); change in SAS and BARS scores at Day 57 [1]: placebo levels of EPS
- HAM-A Remission (HAM-A total score = 7) at Day 57 [1]: Quetiapine is better than
- Sexual dysfunction: change from randomization in CSFQ total score at Day 57 [1]: placebo levels of sexual
- Change from randomization in CGI-S score, CGI-I (much or very much improved), HAM-A psychic and somatic clusters at Day 57 ([1]; across anxiety symptoms): Quetiapine is more effective
- Change from randomization in the Hamilton Anxiety Scale (HAM-A) total score at Day 57 ([2]; claim to be addressed, primary outcome, vs placebo): more effective
- Adverse events of nausea or vomiting [2, 7]: lower levels of nausea and
- Incidence of withdrawals due to adverse events [2, 7]: Quetiapine has similar
- Sexual dysfunction: change from randomization in CSFQ total score at Day 57 [2, 7]: lower levels of sexual
- Somnolence: severity of AEs, time of first instance, withdrawals due to AE of somnolence ([2]; hypothesis to be tested, compared to placebo): generally mild, occurs early in
- Change from randomization in HAM-A total score, HAM-A psychic cluster, HAM-A somatic cluster and CGI-S score at Day 4 ([2]; hypothesis to be tested, compared to placebo, Day 4): anti-anxiety effect by Day 4
- Change from randomization in MADRS total score at Day 57 ([2]; hypothesis to be tested, depressive symptoms in GAD, vs placebo): Quetiapine is more effective
- Adverse events related to discontinuation; change in Discontinuation-Emergent Signs and Symptoms total score at Day 64 and Day 71 ([2]; hypothesis to be tested, discontinuation symptoms): Quetiapine does not have
- Change from normal to Clinically Important in Physical Examinations; Laboratory values; Vital signs; ECGs ([2]; hypothesis to be tested, once daily up to 150 mg/day): 150 mg/day is safe and well
- Change from randomization in Q-les-Q Item 15 (Satisfaction with medication) at Day 57 ([2]; hypothesis to be tested, patient satisfaction, vs placebo): Quetiapine is more effective
- Change from randomization in Q-les-Q total score and Q-les-Q Item 16 (Overall life satisfaction) at Day 57 ([2]; hypothesis to be tested, quality of life, vs placebo): Quetiapine is more effective
- HAM-A Response (decrease from randomization total score of ≧50%) at Day 4 ([2]; hypothesis to be tested, response rate vs placebo, Day 4): Quetiapine has a greater
- HAM-A Response (decrease from randomization total score of ≧50%) at Day 57 ([2]; hypothesis to be tested, response rate vs placebo, Day 57): Quetiapine has a greater
- Change from randomization in PSQI score and MADRS sleep disturbance factor (Item 4) at Day 57 ([2]; hypothesis to be tested, sleep quality, vs placebo): Quetiapine is superior to
- Change from randomization in HAM-A total score, CGI Global Improvement, HAM-A psychic and somatic clusters at Day 57 ([2]; hypothesis to be tested, versus paroxetine): Quetiapine is at least as
- Adverse events of nausea or vomiting [2, 8]: placebo levels of nausea and
- Adverse events related to EPS (including akathisia); change in SAS and BARS scores at Day 57 [2, 8]: placebo levels of EPS
- HAM-A Remission (HAM-A total score ≦7) at Day 57 [2, 8]: Quetiapine is better than
- Sexual dysfunction: change from randomization in CSFQ total score at Day 57 [2, 8]: placebo levels of sexual
- Change from randomization in CGI-S score, CGI-I (much or very much improved), HAM-A psychic and somatic clusters at Day 57 ([2]; hypothesis to be tested, vs placebo, across anxiety symptoms): Quetiapine is more effective
- BSPS scores versus placebo at baseline or endpoint ([3]; in vivo): no significant differences
- SPIN or SDI scores versus placebo at baseline or endpoint ([3]; in vivo): no significant difference
- mean CGI-I scores at endpoint versus placebo ([3]; in vivo): no significant difference
- most frequent side effects ([3]; in vivo): drowsiness, dizziness, and nausea
- serious adverse events ([3]; in vivo): No serious adverse events were reported
- patients who scored a 1 or 2 on the CGI-I scale ([3]; placebo 0%): 40%
- patients experiencing a ≧50% drop in BSPS score at endpoint compared with baseline ([3]; placebo 0%, mean final dose 147 mg twice a day): 20%
- mean MADRS score at baseline ([4]; added to SRI): about 19
- mean MADRS score at trial end ([4]; added to SRI): about 15
- mean Y-BOCS score at baseline, the 5 patients that responded ([4]; added to SRI): about 30
- mean Y-BOCS score after treatment, the 5 patients that responded ([4]; added to SRI, 8 weeks): about 17
- patients who responded to treatment (≧25% decrease in Y-BOCS score at endpoint) ([4]; added to SRI, final mean dosage about 169 mg/day): Five of the 16
- most common adverse events ([4]; in vivo): Sedation and fatigue
- patients who withdrew because of an adverse event ([4]; in vivo): 1 patient
- severity of adverse events ([4]; in vivo): generally mild
- reduction in HAM-A psychic anxiety subscale, observed cases ([5]; Week 2, placebo −3.0): −6.6
- change from baseline in HAM-A total score, observed case analysis ([5]; Week 2, placebo −5.9): −11.1
- reduction in HAM-A psychic anxiety subscale, observed cases ([5]; Week 4, placebo −4.0): −7.8
- change from baseline in HAM-A total score, observed case analysis ([5]; Week 4, placebo −8.6): −13.7
- mean decrease from baseline in HAM-A total score ([5]; baseline to week 6, ITT, LOCF, placebo about 9, difference not significant, mean dose 125 mg/day): about 12
- AIMS, SAS, or BARS scores versus placebo ([5]; in vivo): no statistically significant differences
- tolerability ([5]; in vivo): generally well tolerated
- patients who discontinued treatment because of AEs ([5]; of 19 in the group): Five
- remission rate at endpoint (HAM-A total score ≦7) ([5]; placebo 21.1%, not statistically significant): 42.1%
- response rate at endpoint (≧50% reduction in HAM-A total score) ([5]; placebo 36.8%, not statistically significant): 57.9%
- reduction from baseline on the CGI-S ([5]; placebo −1.05): −1.37
- reduction from baseline on the Hospital Anxiety and Depression (HAD) anxiety subscale ([5]; placebo −3.16): −3.79
- reduction from baseline on the HAM-A somatic subscale ([5]; placebo −4.4): −5.2
- Widlocher Psychomotor Retardation Scale mean baseline score ([6]; add-on to antidepressant): about 30
- Widlocher Psychomotor Retardation Scale mean score after treatment ([6]; add-on to antidepressant): about 7
- mean MADRS score after Day 7 up to Day 56 (end value) ([6]; add-on to antidepressant): about 8
- mean MADRS score, start value 'After Day 7' ([6]; add-on to antidepressant): about 38
- mean HAM-D score at Day 56 [6, 9]: about 5
- mean HAM-D score, start value of 'From Day 7 to 56' [6, 9]: about 26
- patients in remission (HAM-D) ([6]; after 56 days): about 80%
- patients who responded (MADRS) ([6]; after 56 days): Eighty
- patients who responded to treatment (HAM-D) ([6]; after 56 days): about 80%
- patients who achieved remission (MADRS) ([6]; at 56 days): Eighty
- SAS scale scores versus baseline ([6]; in vivo): decreased scores from baseline
